The source of these data is ChEMBL document CHEMBL5230157, “The natural anthraquinone dye purpurin exerts antibacterial activity by perturbing the FtsZ assembly” (Bioorg Med Chem, 2021).

The target in the experiment is T1, Cell division protein FtsZ (Bacillus subtilis, UniProt A5Z1V5).
T1 sequence (A5Z1V5 whole entry): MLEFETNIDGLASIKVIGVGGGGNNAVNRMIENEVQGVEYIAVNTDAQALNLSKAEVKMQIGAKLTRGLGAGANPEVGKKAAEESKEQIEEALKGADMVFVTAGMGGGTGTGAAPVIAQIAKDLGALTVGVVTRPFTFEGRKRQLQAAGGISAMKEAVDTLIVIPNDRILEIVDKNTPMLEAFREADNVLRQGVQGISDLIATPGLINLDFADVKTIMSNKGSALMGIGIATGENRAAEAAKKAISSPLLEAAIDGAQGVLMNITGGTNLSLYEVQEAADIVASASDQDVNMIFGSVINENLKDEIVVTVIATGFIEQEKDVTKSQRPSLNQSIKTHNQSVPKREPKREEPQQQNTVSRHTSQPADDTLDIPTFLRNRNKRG
As to the kind of experiment: Binding affinity to Bacillus subtilis FtsZ assessed as dissociation constant of intrinsic tryptophan quenching incubated for 30 mins by double reciprocal plot analysis.

On to `CC1=CC(=O)c2c(O)cccc2C1=O` [PLUMBAGIN], for which the equilibrium dissociation constant (Kd) was determined as 15.8 µM.

Broadly, the Kd is the constant that tells how readily two partners part at equilibrium.
